Data: ChEMBL document CHEMBL3046343, “Responses of the cabbage seedpod weevil, Ceutorhynchus obstrictus (Marsham) (Coleoptera: Curculionidae), to seed treatments of canola (Brassica napus L.) with the neonicotinoid compounds clothianidin and imidacloprid” (2009)
Calls of active or inactive are those of the source. No cut-off for these calls is given here.

Columns and labels:
Ceutorhynchus obstrictus [1] = experiment: Inhibition of Ceutorhynchus obstrictus preimaginal development in Brassica napus L. Ryder pods of plant developed from compound treated seeds assessed as decrease in number of second-instar larvae at 600 g/L FS by microscopic analysis; assay type: functional, organism-based
Contarinia nasturtii = experiment: Inhibition of Contarinia nasturtii larval development in Brassica oleracea L. var italica plant developed from compound pretreated seeds at 4.5 g AI per 100 g seed measured at 4-5 weeks after planting; assay type: functional; parameters: scale not given: the % may be the effect or the level left
Ceutorhynchus obstrictus [2] = experiment: Effect on Ceutorhynchus obstrictus oviposition in Brassica napus L. Ryder pods of plant developed from compound treated seeds assessed as number of eggs deposited at 600 g/L FS by microscopic analysis; assay type: functional, organism-based
Ceutorhynchus obstrictus [3] = experiment: Inhibition of emergence of new-generation Ceutorhynchus obstrictus adults from soil harboring Brassica napus L. Ryder plant developed from compound treated seeds at 600 g/L FS measured for 5 weeks relative to lindane; assay type: functional
Ceutorhynchus obstrictus [4] = experiment: Inhibition of Ceutorhynchus obstrictus preimaginal development in Brassica napus L. Ryder pods of plant developed from compound treated seeds assessed as decrease in number of exit holes formed per pod by third-instar larvae at 600 g/L FS; assay type: functional, organism-based
Ceutorhynchus obstrictus [5] = experiment: Inhibition of Ceutorhynchus obstrictus preimaginal development in Brassica napus L. Ryder pods of plant developed from compound treated seeds assessed as effect on number of first-instar larvae at 600 g/L FS by microscopic analysis; assay type: functional, organism-based
Ceutorhynchus obstrictus [6] = experiment: Inhibition of Ceutorhynchus obstrictus preimaginal development in Brassica napus L. Ryder pods of plant developed from compound treated seeds assessed as decrease in number of third-instar larvae at 600 g/L FS by microscopic analysis; assay type: functional, organism-based
Ceutorhynchus obstrictus [7] = experiment: Inhibition of Ceutorhynchus obstrictus preimaginal development in Brassica napus L. Ryder pods of plant developed from compound treated seeds assessed as decrease in number of third-instar larvae at 800 g/L FS by microscopic analysis; assay type: functional, organism-based
Ceutorhynchus obstrictus [8] = experiment: Inhibition of Ceutorhynchus obstrictus development in canola pods of plant developed from compound treated seeds assessed as decrease in number of exit holes formed by larvae at 0.45 kg AI per 45.36 kg seeds; assay type: functional
Ceutorhynchus obstrictus [9] = experiment: Inhibition of Ceutorhynchus obstrictus preimaginal development in Brassica napus L. Ryder pods of plant developed from compound treated seeds assessed as decrease in number of exit holes formed per pod by larvae at 800 g/L FS; assay type: functional, organism-based
Ceutorhynchus obstrictus [10] = experiment: Inhibition of Ceutorhynchus obstrictus development in canola pods of plant developed from compound treated seeds assessed as decrease in number of exit holes formed by larvae at 0.23 kg AI per 45.36 kg seeds relative to untreated control; assay type: functional
Ceutorhynchus obstrictus [11] = experiment: Inhibition of Ceutorhynchus obstrictus development in canola pods of plant developed from compound treated seeds assessed as decrease in number of exit holes formed by larvae at 0.38 kg AI per 45.36 kg seeds; assay type: functional
Ceutorhynchus obstrictus [12] = experiment: Effect on Ceutorhynchus obstrictus oviposition in Brassica napus L. Ryder pods of plant developed from compound treated seeds assessed as number of eggs deposited at 800 g/L FS by microscopic analysis; assay type: functional, organism-based
Ceutorhynchus obstrictus [13] = experiment: Inhibition of emergence of new-generation Ceutorhynchus obstrictus adults from soil harboring Brassica napus L. Ryder plant developed from compound treated seeds at 800 g/L FS measured for 5 weeks relative to lindane; assay type: functional
Ceutorhynchus obstrictus [14] = experiment: Inhibition of Ceutorhynchus obstrictus development in canola pods of plant developed from compound treated seeds assessed as decrease in number of exit holes formed by larvae at 0.38 kg AI per 45.36 kg seeds relative to untreated control; assay type: functional
Ceutorhynchus obstrictus [15] = experiment: Inhibition of Ceutorhynchus obstrictus development in canola pods of plant developed from compound treated seeds assessed as decrease in number of exit holes formed by larvae at 0.28 kg AI per 45.36 kg seeds; assay type: functional
Ceutorhynchus obstrictus [16] = experiment: Inhibition of Ceutorhynchus obstrictus development in canola pods of plant developed from compound treated seeds assessed as decrease in number of exit holes formed by larvae at 0.23 kg AI per 45.36 kg seeds; assay type: functional
Ceutorhynchus obstrictus [17] = experiment: Inhibition of Ceutorhynchus obstrictus development in canola pods of plant developed from compound treated seeds assessed as decrease in number of exit holes formed by larvae at 0.28 kg AI per 45.36 kg seeds relative to untreated control; assay type: functional
Ceutorhynchus obstrictus [18] = experiment: Inhibition of Ceutorhynchus obstrictus development in canola pods of plant developed from compound treated seeds assessed as decrease in number of exit holes formed by larvae at 0.30 kg AI per 45.36 kg seeds relative to untreated control; assay type: functional
Ceutorhynchus obstrictus [19] = experiment: Inhibition of Ceutorhynchus obstrictus preimaginal development in Brassica napus L. Ryder pods of plant developed from compound treated seeds assessed as decrease in number of second-instar larvae at 800 g/L FS by microscopic analysis; assay type: functional, organism-based
Ceutorhynchus obstrictus [20] = experiment: Inhibition of Ceutorhynchus obstrictus development in canola pods of plant developed from compound treated seeds assessed as decrease in number of exit holes formed by larvae at 0.30 kg AI per 45.36 kg seeds; assay type: functional
Ceutorhynchus obstrictus [21] = experiment: Inhibition of Ceutorhynchus obstrictus development in canola pods of plant developed from compound treated seeds assessed as decrease in number of exit holes formed by larvae at 0.45 kg AI per 45.36 kg seeds relative to untreated control; assay type: functional
Ceutorhynchus obstrictus [22] = experiment: Inhibition of Ceutorhynchus obstrictus preimaginal development in Brassica napus L. Ryder pods of plant developed from compound treated seeds assessed as effect on number of first-instar larvae at 800 g/L FS by microscopic analysis; assay type: functional, organism-based
Ceutorhynchus obstrictus [23] = experiment: Ratio of compound to imidacloprid for exit holes formed in Brassica napus L. Ryder pod by […] larvae of Ceutorhynchus obstrictus; assay type: functional
Ceutorhynchus obstrictus [24] = experiment: Inhibition of Ceutorhynchus obstrictus preimaginal development in Brassica napus L. Ryder pods of plant developed from compound treated seeds assessed as effect on number of first-instar larvae at 1351 g per 100 kg seeds by microscopic analysis; assay type: functional, organism-based
Ceutorhynchus obstrictus [25] = experiment: Ratio of compound to clothianidin for exit holes formed in Brassica napus L. Ryder pods by Ceutorhynchus obstrictus larvae; assay type: functional
Ceutorhynchus obstrictus [26] = experiment: Effect on Ceutorhynchus obstrictus oviposition in Brassica napus L. Ryder pods of plant developed from compound treated seeds assessed as number of eggs deposited at 1351 g per 100 kg seeds by microscopic analysis; assay type: functional, organism-based

Structure (SMILES): CN/C(=N\[N+](=O)[O-])NCc1cnc(Cl)s1 [CLOTHIANIDINE]
- inhibition (Ceutorhynchus obstrictus [1]): Active
- Activity (Contarinia nasturtii): 100%
- Activity (Ceutorhynchus obstrictus [2]): inactive
- inhibition (INH) (Ceutorhynchus obstrictus [3]): 52.2%
- inhibition (Ceutorhynchus obstrictus [4]): Active
- inhibition (Ceutorhynchus obstrictus [5]): inactive
- inhibition (Ceutorhynchus obstrictus [6]): Active

Structure (SMILES): O=[N+]([O-])/N=C1\NCCN1Cc1ccc(Cl)nc1 [IMIDACLOPRID]
- Activity (Contarinia nasturtii): 100%
- inhibition (Ceutorhynchus obstrictus [7]): Active
- inhibition (INH) (Ceutorhynchus obstrictus [8]): 100%
- inhibition (Ceutorhynchus obstrictus [9]): Active
- fold change (FC) (Ceutorhynchus obstrictus [10]): 1.9
- inhibition (INH) (Ceutorhynchus obstrictus [11]): 98%
- Activity (Ceutorhynchus obstrictus [12]): inactive
- inhibition (INH) (Ceutorhynchus obstrictus [13]): 39.4%
- fold change (FC) (Ceutorhynchus obstrictus [14]): 2
- inhibition (INH) (Ceutorhynchus obstrictus [15]): 100%
- inhibition (INH) (Ceutorhynchus obstrictus [16]): 88%
- fold change (FC) (Ceutorhynchus obstrictus [17]): 2.2
- fold change (FC) (Ceutorhynchus obstrictus [18]): 2.1
- inhibition (Ceutorhynchus obstrictus [19]): Active
- inhibition (INH) (Ceutorhynchus obstrictus [20]): 96%
- fold change (FC) (Ceutorhynchus obstrictus [21]): 2.4
- inhibition (Ceutorhynchus obstrictus [22]): inactive

Structure (SMILES): Cl[C@H]1[C@H](Cl)[C@@H](Cl)[C@@H](Cl)[C@H](Cl)[C@H]1Cl [LINDANE]
- fold change (FC) (Ceutorhynchus obstrictus [23]): 2
- inhibition (Ceutorhynchus obstrictus [24]): inactive
- fold change (FC) (Ceutorhynchus obstrictus [25]): 2.5
- Activity (Ceutorhynchus obstrictus [26]): inactive
